Reference: PubChem BioAssay AID687022 (Broad Institute, 2013)
Calls of active or inactive are those of the source.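 Rule for the calls: active = Fitted curve of melting temperature shift crosses the 1.0 threshold at or below the sample's highest valid tested concentration; inconclusive = Flat fit with activity 30 to 70, or invalid fit; inactive = Opposite direction, flat within 30, or no crossing.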

Target: Fibroblast growth factor 22 (Homo sapiens) (UniProt Q9HCT0)
Experiment: FGF22 ligand-induced thermal stabilization – biophysical, thermal shift, cherry-pick, FGF22 synaptogenesis inhibitor project, dose response (AID 687022)
Conditions: recombinant FGF22 thermal shift, SYPRO orange melting

Chain of Fibroblast growth factor 22 (Homo sapiens) (Q9HCT0 whole entry, looked up): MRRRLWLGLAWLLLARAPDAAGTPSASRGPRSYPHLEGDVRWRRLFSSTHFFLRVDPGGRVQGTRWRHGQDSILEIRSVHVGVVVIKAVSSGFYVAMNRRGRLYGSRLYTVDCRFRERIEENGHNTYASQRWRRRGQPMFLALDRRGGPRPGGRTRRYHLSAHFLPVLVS

| Compound | AbsAC1 (concentration giving Tm-shift threshold 1.0) |
| --- | --- |
| Cn1ncc2c(Nc3ccc(Cl)c(Cl)c3)ncnc21 | 24.9 µM |
| COc1ccccc1-c1ccc2c(c1)O[C@@H](CN(C)C(=O)Nc1cccc(F)c1)[C@H](C)CN([C@@H](C)CO)S2(=O)=O | 20.6 µM |
| CN(Cc1c(C(=O)N/N=C/c2ccc(O)cc2)nnn1-c1nonc1N)c1ccccc1 | 0.867 µM |
| O=C(NNC(=O)C1CCN(S(=O)(=O)c2ccccc2C(F)(F)F)CC1)c1ccccc1O | 10.4 µM |
| C[C@H]1CN([C@@H](C)CO)S(=O)(=O)c2ccc(-c3ccncc3)cc2O[C@H]1CN(C)C(=O)Nc1ccc(C(F)(F)F)cc1 | 11.8 µM |
| O=C(Nc1ccc(Cl)cc1)N[C@H]1CC[C@H](CCNC(=O)c2cc(Cl)cc(Cl)c2)O[C@@H]1CO | 34.9 µM |
| C[C@H](CO)N1C[C@H](C)[C@H](CN(C)C(=O)Nc2ccc3c(c2)OCO3)Oc2cc(C3=CCCC3)ccc2S1(=O)=O | 36.2 µM |
| O=C(C[C@H]1CC[C@H]2[C@@H](COC[C@@H](O)CN2S(=O)(=O)c2cccc(F)c2)O1)Nc1ccc(-c2ccccc2)cc1 | > 38 µM (inactive) |
| O=C(O)Cc1ccc(NC(=O)c2ccc(Cl)c(Cl)c2)cc1 | 4.5 µM |
| Cc1nc2c(C)cccc2cc1C(=O)N/N=C/c1ccc(O)cc1 | 14.8 µM |
| C/C=C/c1ccc2c(c1)O[C@H](CN(C)C(=O)Nc1cc(F)ccc1F)[C@H](C)CN([C@H](C)CO)S2(=O)=O | > 42 µM (inactive) |
| O=C(CCc1ccc(O)cc1)c1c(O)cc(O)cc1O | 1.74 µM |
| O=C(Nc1ccc(F)cc1)N[C@@H]1CC[C@H](CCn2cc(-c3ccc(F)cc3)nn2)O[C@H]1CO | 13 µM |
| Cc1ccc(NC(=O)c2ccc(OCc3c(C)noc3C)cc2)c(C)c1 | 2.58 µM |
| O=C(Nc1ccc(Cl)cc1)N[C@@H]1CC[C@@H](CCNS(=O)(=O)c2ccccc2F)O[C@H]1CO | 5.88 µM |
| CC(=O)Nc1ccc(S(=O)(=O)N(CCc2ccccc2)CC(=O)N/N=C/c2ccc(C(=O)O)cc2)cc1 | 7.42 µM |
| COc1cc(NC(=O)c2csc(N)n2)cc(C(=O)Nc2cccc(C(F)(F)F)c2)c1 | 10.3 µM |
| O=[N+]([O-])c1ccc(S(=O)(=O)Nc2nnc(C(F)(F)F)s2)cc1 | 4.67 µM |
| O=C(N/N=C/c1ccc(O)c(O)c1)N/N=C/c1ccc(O)c(O)c1 | 7.88 µM |
| Cc1ccc(S(=O)(=O)N(C)C[C@@H]2Oc3cc(Br)ccc3S(=O)(=O)N([C@@H](C)CO)C[C@H]2C)cc1 | 29.2 µM |

| Compound | AbsAC1 (concentration giving Tm-shift threshold 1.0) |
| --- | --- |
| COC(=O)C1=C(CS(=O)(=O)c2cc(OC)ccc2OC)NC(=O)NC1c1ccc(O)c(OC)c1 (stereo not given) | 3.09 µM |
| Nc1nc(O)c(Sc2ccccc2[N+](=O)[O-])c(=O)[nH]1 | 2.7 µM |
| Cc1cccc(S(=O)(=O)N2C[C@@H](O)COC[C@H]3O[C@H](CC(=O)Nc4ccc(-c5ccccc5)cc4)CC[C@@H]32)c1 | 16.6 µM |
| COc1cc(/C=N/NC(=O)c2cc3ccccc3[nH]2)ccc1O | 1.49 µM |
| O=C(CCc1ccccc1)c1c(O)cc(O)cc1O | > 5 µM (inactive) |
| Cc1cc(C)cc(NC(=O)CN2C(=O)NC(Cc3c[nH]c4ccccc34)C2=O)c1 (stereo not given) | 13 µM |
| O=C(Nc1ccc(F)cc1)N[C@@H]1CC[C@H](CCn2cc(-c3ccccc3F)nn2)O[C@H]1CO | 10.3 µM |
| COc1ccc(NC(=O)CN(C)C(=O)c2cn(-c3ccccc3)nc2-c2cccnc2)cc1 | > 38 µM (inactive) |
| COc1ccc(NS(=O)(=O)c2ccc(Cl)c(N)c2)cc1Br | 4.09 µM |
| Cc1cccc(NC(=O)Nc2ccc(S(N)(=O)=O)cc2)c1 | 4.36 µM |
| COc1cc(/C=N/NC(=O)CCn2c3ccccc3c3ccccc32)ccc1O | 15.9 µM |
| Nc1ccc(C(=O)N/N=C/c2c[nH]c3ccccc23)cc1 | 3.41 µM |
| O=C(Nc1nc(-c2ccccn2)cs1)c1cc2ccccc2o1 | 16.1 µM |
| CC1(C)CCC(=O)N2CC[C@H]3C[C@H](OC(=O)Nc4ccccc4)C[C@@H]1[C@H]32 | 12 µM |
| O=C(CNC(=O)c1cccc(Br)c1)N/N=C/c1cc(Br)cc(Br)c1O | > 38 µM (inactive) |
| COC(=O)C[C@H]1CC[C@@H]2[C@@H](COc3ccc(NC(=O)Nc4ccc(C#N)cc4)cc3C(=O)N2C)O1 | 5.43 µM |
| O=C(Nc1ccc(S(=O)(=O)NCc2ccccc2)cc1)c1ccccc1[N+](=O)[O-] | 12 µM |
| CCCNC(=O)COC(=O)c1ccccc1C(=O)N(C)C1CCCCC1 | 3.78 µM |
| Cc1ccc(Cl)cc1N1CCN(C(=O)Cc2c(C(=O)O)[nH]c3ccc(Cl)cc23)CC1 | 4.47 µM |
| CC(=O)Nc1cccc(NC(=O)c2ccc3[nH]c(C)c(C)c3c2)c1 | 5.11 µM |
